{
  "source": "patent US20190070170A1",
  "about": "“METHOD OF S[…]-1” (Macau University of Science and Technology, priority 2017, published 2019)",
  "key": {"mPGES-1": {"test_system": "mPGES-1", "assay": "mPGES-1 protein expression in hind paws of CIA DBA/1 mice", "format": "in vivo", "settings": "SIN 100 mg/kg i.p. or MTX 10 mg/kg/week p.o.", "method": "Female DBA/1 mice (8-9 weeks old) were purchased from Shanghai SiLaike (SLAC) Laboratory Animal Company (Shanghai, China) and fed with a chow diet and water at room temperature. Equal volume of complete Freuend's adjuvant (CFA) and Bovine Type II Collagen (CII) were mixed and emulsified using a homogenizer (13,000 rpm) on ice. On day 0, DBA/1 mice were immunized by injecting 50 μl of CII in CFA in the tail, approximately 2 cm from the base of the tail. […] The incidence of joint swelling in each group was recorded every two days since drug treatment. […]\nFrozen paws were pulverized in liquid nitrogen using a stainless steel mortar and pestle, then re-suspended in 8 volumes of ice-cold PBS from Invitrogen (San Diego, Calif., USA) with 2.6 mM DTT from Promega (Madison, Wis., USA) and 2×Complete Protease Inhibitor mixture from Roche (Mannheim, Germany), and homogenized on ice bath using a tissue homogenizer from T25 digital, IKA (Stanfen, Germany) at 10,000 rpm/min for 5 min. […] The protein concentrations were measured using a Bio-Rad protein assay kit (Hercules, Calif., USA). […]\nWhole-cell and nuclear proteins were obtained using RIPA lysis buffer (CST, Boston, Mass., USA) and Nuclear and Cytoplasmic Extraction Reagents kit from Thermo Scientific (Asheville, N.C., USA), respectively. […] The levels of protein expression were measured using Odyssey v3.0 software from Li-COR (Lincoln, Nebr., USA)."}, "[1]": {"test_system": "collagen-induced arthritis", "assay": "Collagen-II induced arthritis (CIA) in DBA/1 mice", "format": "in vivo", "settings": "CIA DBA/1 mice; SIN 100 mg/kg i.p.", "method": "Female DBA/1 mice (8-9 weeks old) were purchased from Shanghai SiLaike (SLAC) Laboratory Animal Company (Shanghai, China) and fed with a chow diet and water at room temperature. Equal volume of complete Freuend's adjuvant (CFA) and Bovine Type II Collagen (CII) were mixed and emulsified using a homogenizer (13,000 rpm) on ice. On day 0, DBA/1 mice were immunized by injecting 50 μl of CII in CFA in the tail, approximately 2 cm from the base of the tail. After injection, on day 18, mice with one or more than one paw inflamed were chosen and randomly divided into model group, SIN (100 mg/kg, i.p.) treatment group and MTX (10 mg/kg/week, p.o) treatment group, the mice without immunization were used as normal control. On day 21, these chosen mice were boosted through injecting the same volume of CII in IFA same as the day 0 immunization procedure. The incidence of joint swelling in each group was recorded every two days since drug treatment. Paw thickness (at the ankle joints of the hind paws) of each mouse was obtained by using vernier caliper to record the severity of paw swelling.\nArthritis score of each paw was evaluated every two days during experiment with the following criteria: • 0: no evidence of erythema and swelling; • 1: erythema and mild swelling confirmed to the tarsals or ankle joint; • 2: erythema and mild swelling extending from the ankle to the tarsal joints; • 3: erythema and moderate swelling extending from the ankle to metatarsal joints; and • 4: erythema and severe swelling encompass the ankle, foot and digits, or ankylosis of the limb.\nThe score of each paw was summed for a score of 0-16 for each mouse. Mice were then sacrificed and hind paws were removed and freshly frozen in liquid nitrogen and stored at −80° C. until used."}, "PGI2": {"test_system": "PGI2", "assay": "PGI2 level in culture supernatants of LPS-activated rat peritoneal macrophages (ELISA)", "format": "cell-based", "settings": "LPS-stimulated rat peritoneal macrophages, culture supernatant", "method": "Sprague-Dawley (SD) rats from the University of Hong Kong were housed in cages with free access to food and water. Peritoneal macrophages of SD rats were isolated as described in Liu J. et al., Pharmacological research 2016, 111:303-315. Briefly, untreated rats were sacrificed and after laparotomy, about 50 ml cold sterile Hank's balanced salt solution (HBSS) was used to lavage the peritoneal cavity at twice, and then the peritoneal lavage fluid was collected and centrifuged at 1500 rpm for 10 min. The cell pellets was suspended at a density 1.5×10^6 cells/ml in pre-hearted DMEM medium with 10% heat-inactivated FBS, penicillin G (100 units/ml), streptomycin ([…]), and L-glutamine (2 mM), followed by seeding in 6-well plates at a density of 4.5×10^6 cells and incubation for 2 h. Then the medium were discarded to remove the non-adherent cells. The adherent cells were further washed for two times with pre-heated DMEM medium to remove floating cells. Next, cells were pre-treated with various concentration of SIN for 1 h, followed by stimulation with LPS (1 μg/ml).\nRAW264.7 cells and rat peritoneal macrophages were seeded in a 96-well plate at density of 1.4×10^4 and 1.5×10^5 cells, respectively. […] The optical density was measured at 570 nm against a reference wavelength of 650 nm using a microplate UV/VIS spectrophotometer (Tecan, Mannedorf, Switzerland). […]"}},
  "data": [
    {"compound": "COC1=C[C@@H]2[C@@H]3Cc4ccc(OC)c(O)c4[C@]2(CCN3C)CC1=O", "note": "[SIN, sinomenine]", "values": [
      {"measurement": "mPGES-1 protein expression in inflamed hind paws", "setting": "mPGES-1", "value": "significantly decreased"},
      {"measurement": "arthritic scores (total of four paws)", "setting": "[1]", "value": "decreased"},
      {"measurement": "average thickness of the inflamed hind paws", "setting": "[1]", "value": "decreased average thickness"},
      {"measurement": "onset of joint swelling (incidence of arthritis)", "setting": "[1]", "value": "delayed the onset of the joint swelling"},
      {"measurement": "level of PGI2", "setting": "PGI2", "value": "no significant influence"}
    ]}
  ]
}
